Calls of active or inactive are those of the source. The calls are words filed in the database; no cut-off is given here.
Legend:
[1] = tested on: Mus musculus; test: Antiinflammatory activity in DSS-induced male C57BL/6 mouse model of inflammatory bowel disease assessed as reduction in diarrhea at 22.5 to 45 mg/kg/day, po via gavage measured upto 14 days; format: functional, organism-based; conditions: dose 22.5-45 mg/kg/day, time <= 14.0 day
[2] = tested on: Mus musculus; test: Antiinflammatory activity in DSS-induced male C57BL/6 mouse model of inflammatory bowel disease assessed as increase in colon length at 45 mg/kg/day, po via gavage measured upto 14 days relative to control; format: functional; conditions: time <= 14 day
[3] = tested on: Mus musculus; test: Antiinflammatory activity in DSS-induced male C57BL/6 mouse model of inflammatory bowel disease assessed as increase in colon length at 22.5 mg/kg/day, po via gavage measured upto 14 days relative to control; format: functional; conditions: time <= 14 day
[4] = tested on: Mus musculus; test: Antiinflammatory activity in DSS-induced male C57BL/6 mouse model of inflammatory bowel disease assessed as restoration of colon length at 40 mg/kg/day, po via gavage measured after 14 days relative to control; format: functional; conditions: time 14 day
[5] = tested on: Mus musculus; test: Antiinflammatory activity in DSS-induced male C57BL/6 mouse model assessed as effect on JNK phosphorylation level at 50 to 100 microM/Kg by Western blot analysis; format: functional, organism-based; conditions: dose 50-100 µM/Kg
[6] = Metabolic stability in dog plasma assessed as half life at pH 7.4 measured upto 60 mins by HPLC-MS analysis; format: ADME, cell-free, Canis lupus familiaris
[7] = Genotoxicity in Salmonella typhimurium by Ames test; format: toxicity; conditions: salmonella enterica subsp. enterica serovar typhimurium
[8] = Acute toxicity in male Kunming mouse assessed as effect on lung 5 g/Kg, po measured after 5 weeks; format: organism-based; conditions: in vivo, 5000 mg/kg, 840 h
[9] = Acute toxicity in female Kunming mouse assessed as effect on lung 5 g/Kg, po measured after 5 weeks; format: organism-based; conditions: in vivo, 5000 mg/kg, 840 h
[10] = Toxicity in male Kunming mouse assessed as effect on liver at 100 to 500 mg/kg/day, po measured after 5 weeks by H and E staining based analysis; format: organism-based; conditions: in vivo, 840 h, dose 100-500 mg/kg/day
[11] = Toxicity in male Kunming mouse assessed as effect on ALT level in serum at 100 to 500 mg/kg/day, po measured after 5 weeks; format: organism-based; conditions: in vivo, 840 h, dose 100-500 mg/kg/day
[12] = Toxicity in male Kunming mouse assessed as effect on TP level in serum at 100 to 500 mg/kg/day, po measured after 5 weeks; format: organism-based; conditions: in vivo, 840 h, dose 100-500 mg/kg/day
[13] = Toxicity in male Kunming mouse assessed as effect on TBIL level in serum at 100 to 500 mg/kg/day, po measured after 5 weeks; format: organism-based; conditions: in vivo, 840 h, dose 100-500 mg/kg/day
[14] = Toxicity in male Kunming mouse assessed as effect on CREA level in serum at 100 to 500 mg/kg/day, po measured after 5 weeks; format: organism-based; conditions: in vivo, 840 h, dose 100-500 mg/kg/day
[15] = Toxicity in male Kunming mouse assessed as effect on T-CHO level in serum at 100 to 500 mg/kg/day, po measured after 5 weeks; format: organism-based; conditions: in vivo, 840 h, dose 100-500 mg/kg/day
[16] = Toxicity in male Kunming mouse assessed as effect on CK level in serum at 100 to 500 mg/kg/day, po measured after 5 weeks; format: organism-based; conditions: in vivo, 840 h, dose 100-500 mg/kg/day
[17] = Toxicity in male Kunming mouse assessed as effect on Cl inorganic salt level in serum at 100 to 500 mg/kg/day, po measured after 5 weeks; format: organism-based; conditions: in vivo, 840 h, dose 100-500 mg/kg/day
[18] = Toxicity in female Kunming mouse assessed as change in food intake at 100 to 500 mg/kg/day, po measured after 5 weeks; format: organism-based; conditions: in vivo, 840 h, dose 100-500 mg/kg/day
[19] = Toxicity in female Kunming mouse assessed as effect on heart at 100 to 500 mg/kg/day, po measured after 5 weeks by H and E staining based analysis; format: organism-based; conditions: in vivo, 840 h, dose 100-500 mg/kg/day
[20] = Toxicity in female Kunming mouse assessed as effect on BUN level in serum at 100 to 500 mg/kg/day, po measured after 5 weeks; format: organism-based; conditions: in vivo, 840 h, dose 100-500 mg/kg/day
[21] = Toxicity in female Kunming mouse assessed as effect on T-CHO level in serum at 100 to 500 mg/kg/day, po measured after 5 weeks; format: organism-based; conditions: in vivo, 840 h, dose 100-500 mg/kg/day
[22] = Toxicity in female Kunming mouse assessed as effect on K inorganic salt level in serum at 100 to 500 mg/kg/day, po measured after 5 weeks; format: organism-based; conditions: in vivo, 840 h, dose 100-500 mg/kg/day
[23] = Toxicity in female Kunming mouse assessed as effect on Na inorganic salt level in serum at 100 to 500 mg/kg/day, po measured after 5 weeks; format: organism-based; conditions: in vivo, 840 h, dose 100-500 mg/kg/day
[24] = Toxicity in female Kunming mouse assessed as effect on Cl inorganic salt level in serum at 100 to 500 mg/kg/day, po measured after 5 weeks; format: organism-based; conditions: in vivo, 840 h, dose 100-500 mg/kg/day
[25] = tested on: Mus musculus; test: Antiinflammatory activity in DSS-induced male C57BL/6 mouse model of inflammatory bowel disease assessed as increase in colon length at 20 mg/kg/day, ip measured after 14 days relative to control; format: functional; conditions: time 14 day
[26] = tested on: Mus musculus; test: Antiinflammatory activity in DSS-induced male C57BL/6 mouse model of inflammatory bowel disease assessed as increase in colon length at 40 mg/kg/day, ip measured after 14 days relative to control; format: functional; conditions: time 14 day
[27] = tested on: Mus musculus; test: Antiinflammatory activity in DSS-induced male C57BL/6 mouse model of inflammatory bowel disease assessed as reduction in weight loss at 15 to 60 mg/kg/day, po via gavage measured upto 14 days; format: functional, organism-based; conditions: dose 15-60 mg/kg/day, time <= 14.0 day
[28] = tested on: Mus musculus; test: Antiinflammatory activity in DSS-induced male C57BL/6 mouse model of inflammatory bowel disease assessed as reduction of bloody stool at 15 to 60 mg/kg/day, po via gavage measured upto 14 days; format: functional, organism-based; conditions: dose 15-60 mg/kg/day, time <= 14.0 day
[29] = tested on: Mus musculus; test: Antiinflammatory activity in DSS-induced male C57BL/6 mouse model of inflammatory bowel disease assessed as decrease in p38 phosphorylation level at 50 to 200 microM/Kg by Western blot analysis; format: functional, organism-based; conditions: dose 50-200 µM/Kg
[30] = tested on: Mus musculus; test: Antiinflammatory activity in DSS-induced male C57BL/6 mouse model assessed as increase in IL-10 level in colon at 50 to 200 microM/Kg; format: functional, organism-based; conditions: dose 50-200 µM/Kg
[31] = species: Mus musculus; test: Antiinflammatory activity in DSS-induced male C57BL/6 mouse model of inflammatory bowel disease assessed as reduction in p38 level; format: functional, organism-based

## CC(=O)OC[C@H]1O[C@@H](OC2=C(C)OC(=C(C)C)C2=O)[C@H](OC(C)=O)[C@@H](OC(C)=O)[C@@H]1OC(C)=O
[1]
  Activity: Active
[2]
  Activity: 91.4%
[3]
  Activity: 45.3%
[4]
  Activity: 28.6%
[5]
  Activity: inactive
[6]
  half-life: 32.5 min
[7]
  Activity: Non-toxic
[8]
  Activity: Non-toxic
[9]
  Activity: Non-toxic
[10]
  Activity: Non-toxic
[11]
  Activity: Non-toxic
[12]
  Activity: Non-toxic
[13]
  Activity: Non-toxic
[14]
  Activity: Non-toxic
[15]
  Activity: Non-toxic
[16]
  Activity: Non-toxic
[17]
  Activity: Non-toxic
[18]
  Activity: Non-toxic
[19]
  Activity: Non-toxic
[20]
  Activity: Non-toxic
[21]
  Activity: Non-toxic
[22]
  Activity: Non-toxic
[23]
  Activity: Non-toxic
[24]
  Activity: Non-toxic

## CC(C)=C1OC(C)=C(O[C@@H]2O[C@H](CO)[C@@H](O)[C@H](O)[C@H]2O)C1=O
[25]
  Activity: 47.4%
[26]
  Activity: 69.4%
[27]
  Activity: Active
[28]
  Activity: Active
[29]
  Activity: Active
[30]
  Activity: Active
[31]
  Activity: Active

— ChEMBL document CHEMBL6120946, “From Hit to Lead: Discovery of First-In-Class Furanone Glycoside D228 Derived from Chimonanthus salicifolius for the Treatment of Inflammatory Bowel Disease” (J Med Chem, 2024)
